# In patent US9399656B2, “Compound, method for producing same, and use of same” (Microbial Chemistry Research Foundation, priority 2011, dated 2016):
# Legend:
# Format in all cases: cell-based, human
# [1] = tested on: PGI2 production in SW982 cell; experiment: PGI2 production inhibitory action (6-keto-PGF1α enzyme immunoassay) in bradykinin-stimulated SW982 cells; conditions: bradykinin 1 nM, 30 min, test substance 14 to 10,000 ng/mL, FIG. 5
# Description: The compound represented by the Structural Formula (A) was evaluated for a PGI2 production inhibitory action as follows. PGI2 is metabolized to 6-keto-PGF1α (6-keto-prostaglandin F1α) which is a stabilized metabolite. Therefore, a concentration of PGI2 produced can be determined by measuring a concentration of 6-keto-PGF1α.
# A SW982 cell which is human […] cell line (purchased from ATCC) was suspended into DMEM/F12 (manufactured by Thermo Fisher Scientific) containing 10% fetal bovine serum (manufactured by Biowest), followed by inoculating into a 96-well culture plate at 1×10^4 cells/well and incubating overnight. […]
# As a negative control, a 6-keto-PGF1α concentration E was measured in the same manner as in the measurement of the 6-keto-PGF1α concentration in the system containing the test substance, except that neither the test substance nor bradykinin (inflammatory stimulating agent) was added.
# As a positive control, a 6-keto-PGF1α concentration F was measured in the same manner as in the measurement of the 6-keto-PGF1α concentration in the system containing the test substance, except that the test substance was not added.
# Based on the measurement result of 6-keto-PGF1α concentration in the each well, a 6-keto-PGF1α production rate was calculated according to the following Expression (2): 6-keto-PGF1α production rate (%)=(D−E)/(F−E)×100 Expression (2) […]
# SW982 cell = experiment: Cytotoxicity test (Cell Counting Kit-8, cell proliferation rate); conditions: SW982 cells, 48 hours
# Description: The compound represented by the Structural Formula (A) was evaluated for cytotoxicity as follows.
# A SW982 cell (purchased from ATCC) at 2×10^3 cells/well was prepared with DMEM/F12 medium (manufactured by Thermo Fisher Scientific) containing 10% fetal bovine serum (manufactured by Nichirei Corporation), followed by inoculating into a 96-well culture plate so that each well contained 0.1 mL. At the same time, the test substance produced in Production Example 1 (the compound represented by the Structural Formula (A)) was added to each well at a concentration described in the following Table 1, followed by incubating for 48 hours under a condition of 37° C. and 5% CO2. After the incubation for 48 hours, 10 μL of a cytometric kit (CELL COUNTING KIT-8, manufactured by DOJINDO LABORATORIES) was added to the each well, followed by incubating for 2 hours. Then, an absorbance at 450 nm G was measured.
# The cytometric kit allows living cells to develop a color. Accordingly, the higher absorbance at 450 nm is, the larger the number of living cells is, that is, cell proliferation is not affected. Therefore, based on the measurement result of absorbance in the each well, a cell proliferation rate was calculated according to the following Expression (3) to thereby evaluate an influence upon the cell proliferation: Cell proliferation rate (%)=G/H×100 Expression (3)
# G denotes an absorbance at 450 nm in the system containing the test substance, and
# H denotes an absorbance at 450 nm in the system containing no test substance (i.e., at a concentration of 0 nM in the following Table 1).
# [2] = tested on: PGE2 production in SW982 cell; experiment: PGE2 production inhibitory action in bradykinin-stimulated SW982 cells (HTRF kit); conditions: bradykinin 1 nM, 30 min, test substance 2 to 10,000 ng/mL, FIG. 5
# Description: The compound represented by the Structural Formula (A) was evaluated for a PGE2 production inhibitory action as follows.
# A SW982 cell which is a human […] cell line (purchased from ATCC (American Type Culture Collection)) was suspended into DMEM/F12 (Dulbecco's Modified Eagle Medium: Nutrient Mixture F-12, manufactured by Thermo Fisher Scientific) containing 10% fetal bovine serum (manufactured by Nichirei Corporation), followed by inoculating into a 96-well culture plate at 1×10^4 cells/well and incubating overnight.
# After the incubation overnight, the medium in the 96-well culture plate containing the SW982 cells was replaced with HEPES-HANKS buffer (manufactured by NISSUI PHARMACEUTICAL CO., LTD.). […] After incubating for 30 min, a culture supernatant was collected, followed by measuring a PGE2 concentration A in the culture supernatant using a kit based on a HTRF (Homogeneous Time-Resolved Fluorescence) method (62P2APEB, manufactured by Cisbio Bioassays).
# As a negative control, a PGE2 concentration B was measured in the same manner as in the measurement of the PGE2 concentration in the system containing the test substance, except that neither the test substance nor bradykinin (inflammatory stimulating agent) was added. […]
structure (smiles),measurement,setting,value
COC1=C(C)C(=O)c2ccc(OC3OC(C)C(O)C(O)C3O)c(NNC(C)=O)c2C1=O (stereo not shown) [Structural Formula (A)],6-keto-PGF1α production rate,[1],decreased
same,Cell proliferation rate (%),SW982 cell; concentration 111 nM,100%
same,Cell proliferation rate (%),SW982 cell; concentration 333 nM,103%
same,Cell proliferation rate (%),"SW982 cell; concentration 10,000 nM",111%
same,Cell proliferation rate (%),"SW982 cell; concentration 30,000 nM",95%
same,Effect on cell proliferation of the SW982 cell,"SW982 cell; up to 30,000 nM (Table 1)",not to affect cell proliferation
same,PGE2 production rate,[2],decreased
